Measured values taken from ChEMBL document CHEMBL1201862, “PubChem BioAssay data set” (2004).
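Five compound concentrations were applied to cells in 96-well plates for 48 hours; endpoints were derived by simple linear interpolation of the resulting dose-response curve. GI50 is the concentration that inhibits growth by half.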 The source made the active and inactive calls. No stated cut-off is given here; in the data, active = GI50 up to about 1.1 µM and inactive = higher. Where a SMILES comes first, the peptide text is derived from it. [ ]: non-standard residue; d: D form. Hiv = CC(C)[C@H](O)C(=O)O

How the values were obtained:
Experiment in all cases: growth of human tumour cells (NCI), 48 h
SK-MEL-5 = tested on: SK-MEL-5
SNB-19 = tested on: SNB-19
UO-31 = tested on: UO-31
ACHN = tested on: ACHN
SF-539 = tested on: SF-539
HT-29 = tested on: HT-29
HL-60 = tested on: HL-60
SNB-75 = tested on: SNB-75
SF-268 = tested on: SF-268
MDA-MB-231 = tested on: MDA-MB-231
UACC-257 = tested on: UACC-257
SR = tested on: SR
CAKI-1 = tested on: CAKI-1
UACC-62 = tested on: UACC-62
MOLT-4 = tested on: MOLT-4
K562 = tested on: K562
KM12 = tested on: KM12
U-251 = tested on: U-251
EKVX = tested on: EKVX
LOX IMVI = tested on: LOX IMVI

| Structure (SMILES) | GI50 (SK-MEL-5) | GI50 (SNB-19) | GI50 (UO-31) | GI50 (ACHN) | GI50 (SF-539) | GI50 (HT-29) | GI50 (HL-60) | GI50 (SNB-75) | GI50 (SF-268) | GI50 (MDA-MB-231) | GI50 (UACC-257) | GI50 (SR) | GI50 (CAKI-1) | GI50 (UACC-62) | GI50 (MOLT-4) | GI50 (K562) | GI50 (KM12) | GI50 (U-251) | GI50 (EKVX) | GI50 (LOX IMVI) |
| --- | --- | --- | --- | --- | --- | --- | --- | --- | --- | --- | --- | --- | --- | --- | --- | --- | --- | --- | --- | --- |
| Cc1ncc([N+](=O)[O-])n1CCNC(=O)Cn1c([N+](=O)[O-])cnc1C | > 100 µM (inactive) | > 100 µM (inactive) | > 100 µM (inactive) | > 100 µM (inactive) | > 100 µM (inactive) | > 100 µM (inactive) | > 100 µM (inactive) | 76.2 µM (inactive) | > 100 µM (inactive) | > 100 µM (inactive) | > 100 µM (inactive) | > 100 µM (inactive) | > 100 µM (inactive) | > 100 µM (inactive) | > 100 µM (inactive) | > 100 µM (inactive) | > 100 µM (inactive) | > 100 µM (inactive) |  |  |
| CC(C)(C)c1cc(Br)c(O)c(CN(Cc2cc(C(C)(C)C)cc(Br)c2O)C2CCCCC2)c1 | 10.9 µM (inactive) | 14.1 µM (inactive) | 14.4 µM (inactive) | 14.9 µM (inactive) |  | 6.89 µM (inactive) | 17.6 µM (inactive) | 8.55 µM (inactive) | 13.5 µM (inactive) | 15 µM (inactive) | 4.14 µM (inactive) | 10.1 µM (inactive) | 12.3 µM (inactive) | 12.7 µM (inactive) | 10.4 µM (inactive) | 13.3 µM (inactive) | 14.7 µM (inactive) | 13.9 µM (inactive) | 14.8 µM (inactive) | 16.3 µM (inactive) |
| O=C(N/N=C1/C(=O)c2c3ccccc3cc3cccc1c23)c1cccc(Cl)c1 | > 100 µM (inactive) | 41.4 µM (inactive) |  | 33 µM (inactive) | 90.2 µM (inactive) | > 100 µM (inactive) | > 100 µM (inactive) | > 100 µM (inactive) |  | > 100 µM (inactive) | > 100 µM (inactive) | > 100 µM (inactive) | > 100 µM (inactive) | 69.7 µM (inactive) | 0.711 µM (active) | > 100 µM (inactive) | > 100 µM (inactive) | 94.8 µM (inactive) |  | > 100 µM (inactive) |
| CCCC(=O)OC1CC(n2cc(F)c(=O)[nH]c2=O)OC1COP(=O)(OCC(Cl)(Cl)Cl)OCC(Cl)(Cl)Cl (centres undefined) | 2.44 µM (inactive) | 3.15 µM (inactive) | 0.49 µM (active) | 0.147 µM (active) |  | 13.7 µM (inactive) | 10.8 µM (inactive) | 8.04 µM (inactive) | 0.766 µM (active) | 24.2 µM (inactive) | 21.7 µM (inactive) | 1.25 µM (inactive) | 0.283 µM (active) | 2.06 µM (inactive) | 2.48 µM (inactive) | > 10 µM (inactive) | 19.1 µM (inactive) | 4.02 µM (inactive) | 43.8 µM (inactive) | 16.1 µM (inactive) |
| CC(C)/C(Cl)=N/OC(=O)Nc1cccc(C(F)(F)F)c1 | 8.05 µM (inactive) | 19 µM (inactive) | 7.96 µM (inactive) | 1.69 µM (inactive) |  | 4.98 µM (inactive) | 0.778 µM (active) | 5.04 µM (inactive) | 23.1 µM (inactive) | 6.68 µM (inactive) | 15.4 µM (inactive) | 1.06 µM (active) | 1.75 µM (inactive) | 13.6 µM (inactive) | 1.67 µM (inactive) | 1.54 µM (inactive) | 15.3 µM (inactive) | 17 µM (inactive) | 2.61 µM (inactive) | 2.51 µM (inactive) |
| S=c1[nH]n2c(CCCCCCCCc3nnc4sc(=S)[nH]n34)nnc2s1 |  | > 100 µM (inactive) | > 100 µM (inactive) | > 100 µM (inactive) | > 100 µM (inactive) | > 100 µM (inactive) | > 100 µM (inactive) | > 100 µM (inactive) | > 100 µM (inactive) | > 100 µM (inactive) | > 100 µM (inactive) | > 100 µM (inactive) | > 100 µM (inactive) | > 100 µM (inactive) | > 100 µM (inactive) | > 100 µM (inactive) | > 100 µM (inactive) | > 100 µM (inactive) | > 100 µM (inactive) |  |
| O=Cc1ccc2c(c1)CC1(Cc3ccccc3C1)C2 | 16 µM (inactive) |  | 31.3 µM (inactive) | 22.1 µM (inactive) | 17.3 µM (inactive) | 23.4 µM (inactive) | 19.4 µM (inactive) |  |  | 13.5 µM (inactive) | 20.5 µM (inactive) | 2.82 µM (inactive) |  | 2.38 µM (inactive) | 18.4 µM (inactive) | 22.1 µM (inactive) | 55.8 µM (inactive) | 17.8 µM (inactive) | 15.3 µM (inactive) | 18.4 µM (inactive) |
| O=C(CSCC(=O)N/N=C/c1ccc(F)cc1)N/N=C/c1ccc(F)cc1 | > 100 µM (inactive) | > 100 µM (inactive) | 48.6 µM (inactive) | > 100 µM (inactive) | > 100 µM (inactive) | > 100 µM (inactive) | > 100 µM (inactive) | > 100 µM (inactive) | > 100 µM (inactive) | > 100 µM (inactive) | > 100 µM (inactive) | > 100 µM (inactive) |  | > 100 µM (inactive) | 25.2 µM (inactive) | 57.1 µM (inactive) | > 100 µM (inactive) | > 100 µM (inactive) | > 100 µM (inactive) |  |
| CC(=O)N1C(Nc2nccs2)CCN1c1ccccc1 (centres undefined) | > 10 µM (inactive) | > 10 µM (inactive) |  | > 10 µM (inactive) | > 10 µM (inactive) | > 10 µM (inactive) | > 10 µM (inactive) | > 10 µM (inactive) | > 10 µM (inactive) | > 10 µM (inactive) | > 10 µM (inactive) | > 10 µM (inactive) | > 10 µM (inactive) |  | > 10 µM (inactive) | > 10 µM (inactive) |  |  | > 10 µM (inactive) | > 10 µM (inactive) |
| CC(=O)Oc1ccc2oc(=O)cc(C)c2c1 | > 100 µM (inactive) | > 100 µM (inactive) | > 100 µM (inactive) | > 100 µM (inactive) | > 100 µM (inactive) | > 100 µM (inactive) | > 100 µM (inactive) | > 100 µM (inactive) | > 100 µM (inactive) | > 100 µM (inactive) | > 100 µM (inactive) | > 100 µM (inactive) | > 100 µM (inactive) |  | > 100 µM (inactive) | > 100 µM (inactive) | > 100 µM (inactive) | > 100 µM (inactive) | > 100 µM (inactive) | > 100 µM (inactive) |
| CCOC(=O)C(NC(=O)CC(C)C)(NC(C)C)C(F)(F)F (centres undefined) | > 100 µM (inactive) | > 100 µM (inactive) | > 100 µM (inactive) | > 100 µM (inactive) | > 100 µM (inactive) | > 100 µM (inactive) | > 100 µM (inactive) |  | > 100 µM (inactive) | > 100 µM (inactive) | > 100 µM (inactive) | > 100 µM (inactive) | > 100 µM (inactive) |  | > 100 µM (inactive) | > 100 µM (inactive) | > 100 µM (inactive) | > 100 µM (inactive) | > 100 µM (inactive) | > 100 µM (inactive) |
| CCN(CC)CCOc1ccccc1/C=C/c1noc2ccccc12 | 3.79 µM (inactive) | 13.6 µM (inactive) | 6.11 µM (inactive) | 12.7 µM (inactive) | 16 µM (inactive) | 2.27 µM (inactive) | 7.76 µM (inactive) | 10.4 µM (inactive) | 17.2 µM (inactive) | 11.4 µM (inactive) | 3.95 µM (inactive) | 11.7 µM (inactive) | 12.8 µM (inactive) | 10.6 µM (inactive) | 12.1 µM (inactive) | 9.29 µM (inactive) | 16.4 µM (inactive) |  | 15.2 µM (inactive) |  |
| O=C(CSc1nc2ccccc2s1)c1sc2sc3ccccc3[n+]2c1[O-] | > 100 µM (inactive) | > 100 µM (inactive) | > 100 µM (inactive) | > 100 µM (inactive) | > 100 µM (inactive) | > 100 µM (inactive) | > 100 µM (inactive) |  | > 100 µM (inactive) | 26.9 µM (inactive) | > 100 µM (inactive) | > 100 µM (inactive) | > 100 µM (inactive) | > 100 µM (inactive) | > 100 µM (inactive) | > 100 µM (inactive) | > 100 µM (inactive) | > 100 µM (inactive) | > 100 µM (inactive) | > 100 µM (inactive) |
| Clc1ccc(CCN2CCN(CCCc3ccccc3)CC2)cc1Cl | 15.8 µM (inactive) | 16.6 µM (inactive) | 12.2 µM (inactive) | 19.6 µM (inactive) | 17.8 µM (inactive) | 13.2 µM (inactive) | 15.7 µM (inactive) |  | 20.4 µM (inactive) | 16.8 µM (inactive) | 17.1 µM (inactive) | 26.7 µM (inactive) | 17.1 µM (inactive) | 16.8 µM (inactive) | 29.6 µM (inactive) | 26.6 µM (inactive) | 17.7 µM (inactive) | 17.4 µM (inactive) | 17.4 µM (inactive) | 17.2 µM (inactive) |
| CC(C)[C@@H]1OC(=O)[C@@H](C)NC(=O)[C@@H]2CCCN2C1=O (cyclo([Hiv]-Pro-[dA])) | > 100 µM (inactive) | > 100 µM (inactive) |  | > 100 µM (inactive) | > 100 µM (inactive) | > 100 µM (inactive) | > 100 µM (inactive) |  | > 100 µM (inactive) | > 100 µM (inactive) | > 100 µM (inactive) | > 100 µM (inactive) | > 100 µM (inactive) | > 100 µM (inactive) | > 100 µM (inactive) |  | > 100 µM (inactive) |  | > 100 µM (inactive) | > 100 µM (inactive) |
